The nature of this series: pKa of the mercapto group by titration with hydrochloric acid in water. The class given is physicochemical. The settings on record: 0.002 mole/liter, dissolved at pH 11, titrated with 0.1 mole/liter hydrochloric acid. Here is the method: The pKa of the mercapto-compounds in connection with the present invention were determined according to the method described in "Ionization Constants of Acids and Bases--A Laboratory Manual" written by Adrien Albert and E. P. Serjeant and Edited by John Wiley & Sons (New York) page 110-112 (1962).
In these particular cases, the compounds were dissolved in water at pH 11. The concentration of the compounds was 0.002 mole/liter and the mixture was then titrated with a solution of hydrochloric acid (0.1 mole/liter).
Compound `Sc1nnnn1-c1ccccc1` [compound 6] returned a pKa of 3.1.

In turn, `CCCCN(CCCC)C(=O)Cn1nnnc1S` [compound 2] came in with a pKa of 3.3.

On to `CCCCn1nnnc1S` [compound 5], for which the pKa was 3.2.

`CCCCCCCCn1nnnc1S` [compound 4]: the pKa turned out to be 3.4.

Source of the values: US5665515A, “Method for obtaining a printing plate according to the silver salt diffusion transfer process” (Agfa-Gevaert N.V., priority 1994, dated 1997).
